Measurements as given in PubChem BioAssay (NCI).
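The compound was tested at five concentrations on cells cultured in 96-well plates, with a 48-hour exposure period. GI50 = concentration required for 50% inhibition of growth. Definition used: TGI = concentration required for complete inhibition of growth.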

What was measured:
Assay in all cases: NCI tumour cell line growth inhibition, 48 h
UACC-257 melanoma = tested on: UACC-257 melanoma
OVCAR-3 ovarian = tested on: OVCAR-3 ovarian
HS 578T breast = tested on: HS 578T breast
TK-10 renal = tested on: TK-10 renal
BT-549 breast = tested on: BT-549 breast
SN12C renal = tested on: SN12C renal
786-0 renal = tested on: 786-0 renal
RXF 393 renal = tested on: RXF 393 renal

Row | SMILES | GI50 (UACC-257 melanoma) | TGI (UACC-257 melanoma) | GI50 (OVCAR-3 ovarian) | TGI (OVCAR-3 ovarian) | GI50 (HS 578T breast) | TGI (HS 578T breast) | GI50 (TK-10 renal) | TGI (TK-10 renal) | GI50 (BT-549 breast) | TGI (BT-549 breast) | GI50 (SN12C renal) | TGI (SN12C renal) | GI50 (786-0 renal) | TGI (786-0 renal) | GI50 (RXF 393 renal) | TGI (RXF 393 renal)
1 | Cc1nn(Cc2ccccc2)cc1C(=O)Nc1sc2c(c1C(N)=O)CCC(=O)C2 | 2.16 µM | 6.24 µM | 1.7 µM | 3.43 µM | 2.51 µM | 9.71 µM | 3.33 µM | 26.4 µM | 2.56 µM | 7.82 µM | 2.61 µM | 7.74 µM | 3.55 µM | 28.6 µM | 2.35 µM | 7.1 µM
2 | COc1cccc(N2CCN(c3ncnc4cc[nH]c34)CC2)c1 | 2.32 µM | 29.2 µM | 9.51 µM | > 100 µM | 35.7 µM | > 100 µM | 25.5 µM | > 100 µM | 2.66 µM | 26.8 µM | 32.6 µM | > 100 µM | 29.1 µM | > 100 µM | 33.6 µM | > 100 µM
3 | O=C1C(Cl)=C(Nc2cc(Cl)ccc2O)C(=O)N1Cc1ccccc1 | 14.1 µM | 28.3 µM | 18.6 µM | 35.8 µM | 21.7 µM | 49.6 µM | 21.4 µM | 42.9 µM | 20.5 µM | 44.3 µM | 19.5 µM | 34.4 µM | 18.2 µM | 33 µM | 14.1 µM | 30.3 µM
4 | O=C(CSC(c1ccccc1)c1ccccc1)N/N=C/c1ccccc1Cl | 7.05 µM | 63.8 µM | 15.6 µM | 57.3 µM | 9.64 µM | > 56.9 µM | 14.5 µM | 65.3 µM | 2.75 µM | 17 µM | 2.66 µM | 11.8 µM | 19.8 µM | 65.5 µM | 10.2 µM | 55.9 µM
5 | COc1ccc(/C=C2\COc3ccc(O)c(O)c3C2=O)cc1OC | 1.75 µM | 4.93 µM | 0.539 µM | 3.31 µM | 2.23 µM | 8.29 µM | 2.66 µM | 27.6 µM | 1.32 µM | 3.25 µM | 1.39 µM | 5.16 µM | 1.51 µM | 3.87 µM | 1.44 µM | 2.91 µM
6 | C=C1C(=O)O[C@H]2[C@H]1CC/C(COC(=O)CCCCCCCC(=O)OC/C1=C/CC[C@@]3(C)O[C@H]3[C@H]3OC(=O)C(=C)[C@@H]3CC1)=C\CC[C@@]1(C)O[C@@H]21 | 2.13 µM | 4.64 µM | 1.32 µM | 2.79 µM | 3.84 µM | 27.3 µM | 2.94 µM | 7.03 µM | 1.59 µM | 3.45 µM | 2.75 µM | 9.33 µM | 1.68 µM | 3.63 µM | 1.43 µM | 2.88 µM
7 | Cn1c2c(c3ccccc3c1=O)C(=O)c1ccccc1-2 | – | > 100 µM | – | > 100 µM | – | > 100 µM | – | > 100 µM | – | > 100 µM | – | > 100 µM | – | > 100 µM | – | –
8 | Cc1ccc(N=Nc2c(O)ccc3n[nH]nc23)cc1 | 5.09 µM | 39.5 µM | 4.31 µM | 22.2 µM | 10.9 µM | 58.4 µM | 11.7 µM | 73.5 µM | 21.2 µM | > 100 µM | 17 µM | > 100 µM | 20.3 µM | > 100 µM | 13.2 µM | 82.1 µM
